# Several values for one entry are separate records, joined by “and”; a condition that tells them apart may be missing. Equal values may be shown once. Read-outs that look alike come from different tables or passages of the source.
# Assays:
# [1] = molecular target: T1, AChE from Electrophorus electricus (eeAChE) (Electrophorus electricus, UniProt O42275); experiment: biochemical; settings: for inhibition at 10 µM: read-out: % Inhibition +/- SD (eeAChE)
# T1 construct: purchased Sigma–Aldrich (Steinheim, Germany)
# Method: (§1) Compounds selected through virtual screening were tested for their ability to inhibit the activity of selected biological targets. The cholinesterase-inhibitory potency of the compounds was evaluated according to Ellman’s method using AChE obtained from E. electricus (eeAChE) and BuChE obtained from equine serum (eqBuChE).
# (§2) The following reagents were purchased from Sigma–Aldrich (Steinheim, Germany): 5,5′-dithiobis-(2-nitrobenzoic acid) (DNTB), acetylthiocholine iodide (ATC), butyrylthiocholine iodide (BTC), AChE from Electrophorus electricus, and BuChE from horse serum. […] The biological assay was performed using Ellman’s method which was modified for 24-well plates. For this assay, 25 µL of the tested compounds or water (in the blank samples) and 20 µL of the enzyme in 765 µL of the buffer were incubated for 5 min at 25 °C before starting the reaction. Then, 20 µL of DTNB and 20 µL of the ATC/BTC solutions were added. […] To determine the IC50 value, the absorbance measured at six different concentrations of the inhibitor was converted to % inhibition of the enzyme and plotted against the applied concentration of the inhibitor, using nonlinear regression (GraphPad Prism 5; GraphPad Software, San Diego, CA, USA). […] All the reactions were performed in triplicate. Data are expressed as the mean ± SEM.
# [2] = molecular target: T2, BuChE from equine serum (eqBuChE) (Equus caballus, UniProt P81908); experiment: biochemical; settings: for inhibition at 10 µM: 10 µM compound concentration, mean ± standard deviation, read-out: % Inhibition +/- SD (eqBuChE)
# T2 construct: BuChE obtained from equine serum (eqBuChE); purchased Sigma–Aldrich (Steinheim, Germany); host or cells: horse serum
# Method: as §1, §2
# eeAChE = molecular target: T3, eeAChE (Electrophorus electricus, UniProt O42275); experiment: Kinetic studies of eeAChE inhibition (Lineweaver-Burk, Cornish-Bowden plots); type: biochemical; settings: substrate acetylthiocholine
# T3 construct: purchased Sigma–Aldrich (Steinheim, Germany)
# Method: This was carried out by making use of the calculated values of Vmax and Km of the Michaelis–Menten kinetics and further through analyzing the Lineweaver–Burk and Cornish-Bowden reciprocal plots.
# Kinetic studies were carried out by following Ellman’s method modified for 96-well plates, using different concentrations of the substrate. The stock solutions of ATC and BTC (0.02125 M) were prepared in water and diluted before use. The aqueous stock solutions of enzymes (5 U/mL) were diluted to a final concentration of 0.384 U/mL. For each concentration of the test compounds, ATC or BTC was used at a concentration of 0.3, 0.24, 0.18, 0.12, 0.06, and 0.04 mM in the wells. Lineweaver–Burk and Cornish-Bowden plots were generated using linear regression in GraphPad Prism 5 (GraphPad Software, San Diego, CA, USA). Each experiment was performed in triplicate.
# eqBuChE = molecular target: T4, eqBuChE (Equus caballus, UniProt P81908); experiment: Kinetic studies of eqBuChE inhibition (Lineweaver-Burk, Cornish-Bowden plots); type: biochemical; settings: substrate butyrylthiocholine
# T4 construct: BuChE obtained from equine serum (eqBuChE); purchased Sigma–Aldrich (Steinheim, Germany); host or cells: horse serum
# Method: […]. This was carried out by making use of the calculated values of Vmax and Km of the Michaelis–Menten kinetics and further through analyzing the Lineweaver–Burk and Cornish-Bowden reciprocal plots. […] […].
# Kinetic studies were carried out by following Ellman’s method modified for 96-well plates, using different concentrations of the substrate. The stock solutions of ATC and BTC (0.02125 M) were prepared in water and diluted before use. […]. Lineweaver–Burk and Cornish-Bowden plots were generated using linear regression in GraphPad Prism 5 (GraphPad Software, San Diego, CA, USA). Each experiment was performed in triplicate.
# [3] = read-out: IC50 eqBuChE [µM] +/- SEM
# [4] = mean ± SEM of at least three experiments
# [5] = read-out: IC50 eeAChE [µM] +/- SEM
# T2 sequence (P81908 whole entry): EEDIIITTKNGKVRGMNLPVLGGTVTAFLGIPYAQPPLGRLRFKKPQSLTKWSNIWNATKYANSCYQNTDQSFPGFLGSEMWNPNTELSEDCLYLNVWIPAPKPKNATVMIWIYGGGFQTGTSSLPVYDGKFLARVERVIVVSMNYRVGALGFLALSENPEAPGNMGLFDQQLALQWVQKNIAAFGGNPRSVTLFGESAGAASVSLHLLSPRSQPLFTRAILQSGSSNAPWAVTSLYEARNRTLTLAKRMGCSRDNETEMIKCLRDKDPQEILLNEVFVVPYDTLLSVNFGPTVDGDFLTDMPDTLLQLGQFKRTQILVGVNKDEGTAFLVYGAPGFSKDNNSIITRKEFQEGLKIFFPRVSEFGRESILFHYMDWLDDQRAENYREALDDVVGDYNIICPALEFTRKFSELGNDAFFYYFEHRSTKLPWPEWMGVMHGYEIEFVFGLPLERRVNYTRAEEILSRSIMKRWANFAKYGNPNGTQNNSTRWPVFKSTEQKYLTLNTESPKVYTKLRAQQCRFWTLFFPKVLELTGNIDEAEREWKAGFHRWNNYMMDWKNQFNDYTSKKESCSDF
# T1 sequence (O42275 24-633): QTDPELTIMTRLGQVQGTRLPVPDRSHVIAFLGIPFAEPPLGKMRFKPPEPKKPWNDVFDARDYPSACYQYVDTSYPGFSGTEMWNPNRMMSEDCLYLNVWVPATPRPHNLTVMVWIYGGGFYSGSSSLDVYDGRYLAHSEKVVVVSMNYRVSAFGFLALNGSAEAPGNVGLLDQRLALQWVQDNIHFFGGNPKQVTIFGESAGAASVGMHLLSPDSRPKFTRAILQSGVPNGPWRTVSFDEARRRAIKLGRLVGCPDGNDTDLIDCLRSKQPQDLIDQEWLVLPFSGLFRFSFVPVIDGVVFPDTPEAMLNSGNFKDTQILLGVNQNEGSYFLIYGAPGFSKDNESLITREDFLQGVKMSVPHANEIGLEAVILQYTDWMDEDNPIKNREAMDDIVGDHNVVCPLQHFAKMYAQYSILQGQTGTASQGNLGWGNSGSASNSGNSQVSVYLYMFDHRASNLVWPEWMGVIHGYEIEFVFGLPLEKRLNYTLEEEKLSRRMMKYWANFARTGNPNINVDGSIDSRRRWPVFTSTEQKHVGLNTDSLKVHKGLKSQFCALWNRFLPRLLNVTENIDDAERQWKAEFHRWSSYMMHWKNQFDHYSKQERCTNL
# T4 sequence (P81908 whole entry): as the sequence (P81908 whole entry) above
# T3 sequence (O42275 24-633): as the sequence (O42275 24-633) above
Compound,inhibition at 10 µM [1],inhibition at 10 µM [2],"IC50 [2, 3]","IC50 [1, 4]","IC50 [1, 5]","IC50 [2, 4]",type of eeAChE inhibition (eeAChE),type of eqBuChE inhibition (eqBuChE)
C(#CCN1c2ccncc2Sc2ccncc21)CN1CCCC1 [Compound 12],20.3 ± 1%,31.4 ± 1.7%,,,,,,
"Fc1ccc2c(c1)Sc1cc3ccccc3nc1N2CCN1CCCCC1 [Compound 23, 9-Fluoro-6-(1-piperidylethyl)quinobenzothiazine]",27 ± 2.8%,97.7 ± 0.5%,0.46 µM and 0.463 µM,,,,,
CCN(CC)CC#CCN1c2ccncc2Sc2ncccc21 [Compound 15],10.1 ± 3.1%,17.2 ± 7.3%,,,,,,
O=C1c2ccccc2C(=O)N1CCCN1c2ccncc2Sc2ncccc21 [Compound 18],72.2 ± 0.7%,30.5 ± 5.7%,,4.26 ± 0.078 µM,,,,
CCN(CC)CC#CCN1c2ccncc2Sc2ccncc21 [Compound 11],20.1 ± 1.4%,20.7 ± 0.9%,,,,,,
C(#CCN1c2ccncc2Sc2ccncc21)CN1CCCCC1 [Compound 13],51.6 ± 3.2%,37.6 ± 1.6%,,,11.3 ± 0.464 µM,,,
O=C1c2ccccc2C(=O)N1CCCN1c2cccnc2Sc2cccnc21 [Compound 5],7.3 ± 0.9%,52.5 ± 5.9%,,,,10.1 ± 0.441 µM,,
CN1CCCCC1CCN1c2cnccc2Sc2cccnc21 (stereo not shown) [Compound 9],58.1 ± 4.1%,76.4 ± 0.2%,3.03 ± 0.072 µM,,6.55 ± 0.177 µM,,,
CSc1ccc2c(c1)Sc1cc3ccccc3nc1N2CC#CCN1CCCC1 [Compound 25],78 ± 1.4%,99.9 ± 0.7%,0.506 ± 0.014 µM,,2.22 ± 0.062 µM,,,
O=C1c2ccccc2C(=O)N1CCCN1c2cnccc2Sc2cccnc21 [Compound 10],49.6 ± 1.3%,71.9 ± 4.3%,3.67 ± 0.054 µM,,,,,
C(#CCN1c2cnccc2Sc2cccnc21)CN1CCCC1 [Compound 7],57.3 ± 0.4%,91.1 ± 0.8%,0.929 ± 0.016 µM,,10 ± 0.604 µM,,,
"C(#CCN1c2cccnc2Sc2cccnc21)CN1CCCCC1 [Compound 2, 10-(4-Piperidin-1-yl-but-2-ynyl)-1,6-diazaphenothiazine]",60.3 ± 8.8%,56.6 ± 2.4%,,8.31 ± 0.315 µM,,8.94 ± 0.239 µM,,
CN1c2ccc(F)cc2Sc2cc3ccccc3nc21 [Compound 20],3 ± 1.6%,35.3 ± 12.3%,,,,,,
"C(#CCN1c2cccnc2Sc2cccnc21)CN1CCOCC1 [Compound 3, 10-(4-Morpholin-4-yl-but-2-ynyl)-1,6-diazaphenothiazine]",13.7 ± 1.5%,63.6 ± 2.4%,,,,9.25 ± 0.275 µM,,
CN1CCCCC1CCN1c2ccncc2Sc2ncccc21 (stereo not shown) [Compound 17],33 ± 4.5%,16.1 ± 0.7%,,,,,,
CN1CCCCC1CCN1c2cccnc2Sc2cccnc21 (stereo not shown) [Compound 4],22.4 ± 1.1%,57 ± 7.4%,,,,9.49 ± 0.33 µM,,
Fc1ccc2c(c1)Sc1cc3ccccc3nc1N2 [Compound 19],6.6 ± 1.3%,81 ± 1.4%,1.02 ± 0.028 µM,,,,,
CN(C)CCCN1c2cnccc2Sc2cccnc21 [Compound 6],20.4 ± 3.6%,85.8 ± 0.5%,0.87 µM and 0.865 µM,,,,,
NCCCCN1c2ccc(F)cc2Sc2cc3ccccc3nc21 [Compound 22],2.3 ± 2.1%,64.7 ± 1%,,,,3.93 ± 0.196 µM,,
C(#CCN1c2ccncc2Sc2ncccc21)CN1CCCC1 [Compound 16],21.9 ± 5.7%,58.5 ± 9%,,,,10.4 ± 0.308 µM,,
NCCCN1c2ccc(F)cc2Sc2cc3ccccc3nc21 [Compound 21],6.5 ± 2.8%,76.3 ± 1.2%,,,,2.51 ± 0.047 µM,,
"C(#CCN1c2cccnc2Sc2cccnc21)CN1CCCC1 [Compound 1, 10-(4-Pyrrolidin-1-yl-but-2-ynyl)-1,6-diazaphenothiazine]",45.4 ± 9.8%,65.4 ± 3%,,,,5.75 ± 0.164 µM,,
"CCN(CC)CC#CCN1c2ccc(SC)cc2Sc2cc3ccccc3nc21 [Compound 24, 6-(4-diethylaminobut-2-ynyl)-9-methylthioquinobenzothiazine]",83.4 ± 1.1%,95.5 ± 0.8%,0.535 ± 0.013 µM,,0.784 ± 0.018 µM,,noncompetitive,noncompetitive
c1cnc2c(c1)Sc1ccncc1N2CCN1CCCCC1 [Compound 8],33.5 ± 1.6%,66 ± 3.4%,4.44 ± 0.049 µM,,,,,
CCN(C)CC#CCN1c2ccncc2Sc2ncccc21 [Compound 14],7.7 ± 2.1%,20.4 ± 1.9%,,,,,,
